The results in this text go back to patent US20240058343A1, “TREATMENT OF URTICARIA USING JAK INHIBITORS” (Incyte Corporation, priority 2022, published 2024).

The IC50 is the concentration that inhibits the measured activity by half. A lower IC50 goes with greater potency in that assay.

In experiment [1] the target is human JAK1 (a.a. 837-1142) (Homo sapiens, UniProt P23458). Nature of the experiment: In vitro JAK kinase assay (HTRF), JAK1. Format: biochemical. Conditions: 1 mM ATP.
Procedure: (§1) The catalytic activity of JAK1, JAK2 or JAK3 was assayed by measuring the phosphorylation of a biotinylated peptide. The phosphorylated peptide was detected by homogenous time resolved fluorescence (HTRF). IC5os of compounds are measured for each kinase in the 40 microL reactions that contain the enzyme, ATP and 500 nM peptide in 50 mM Tris (pH 7.8) buffer with 100 mM NaCl, 5 mM DTT, and 0.1 mg/mL (0.01%) BSA. […] Reactions are carried out at room temperature for 1 hour and then stopped with 20 μL 45 mM EDTA, 300 nM SA-APC, 6 nM Eu-Py20 in assay buffer (Perkin Elmer, Boston, MA). Binding to the Europium labeled antibody takes place for 40 minutes and HTRF signal was measured on a Fusion plate reader (Perkin Elmer, Boston, MA).
For experiment [2], the target named is JAK2 (a.a. 828-1132) (Homo sapiens (Human), UniProt O60674). Nature of the experiment: In vitro JAK kinase assay (HTRF), JAK2, for JAK2/JAK1 ratio. The class given is biochemical. Conditions: IC50 ratio at 1 mM ATP.
Sequence of JAK2 (a.a. 828-1132) (O60674 828-1132): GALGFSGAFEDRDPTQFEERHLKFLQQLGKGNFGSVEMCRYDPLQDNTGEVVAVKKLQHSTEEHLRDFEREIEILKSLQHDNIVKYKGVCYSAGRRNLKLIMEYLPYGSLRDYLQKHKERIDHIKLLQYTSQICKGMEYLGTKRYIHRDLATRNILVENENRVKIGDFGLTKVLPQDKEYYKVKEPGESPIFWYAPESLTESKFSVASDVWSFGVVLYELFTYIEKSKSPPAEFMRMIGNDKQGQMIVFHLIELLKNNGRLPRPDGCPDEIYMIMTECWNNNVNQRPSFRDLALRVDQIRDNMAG
Procedure: as §1

In experiment [1], `N#CCC(C1CCN(c2cccc(Cl)n2)C1)n1cc(-c2ncnc3[nH]ccc23)cn1` (single isomer, unassigned) [compound 6, 3-[1-(6-chloropyridin-2-yl)pyrrolidin-3-yl]-3-[4-(7H-pyrrolo[2,3-d]pyrimidin-4-yl)-1H-pyrazol-1-yl]propanenitrile] displayed a concentration for half-maximal inhibition (IC50) of less than 10 nM. Besides, in experiment [2], the JAK2/JAK1 is listed as more than 10.
`N#CCC1(n2cc(-c3ncnc4[nH]ccc34)cn2)CN(C2CCN(C(=O)Nc3ccc(F)cc3C(F)(F)F)CC2)C1` [compound 2, 4-{3-(Cyanomethyl)-3-[4-(7H-pyrrolo[2,3-d]pyrimidin-4-yl)-1H-pyrazol-1-yl]azetidin-1-yl}-N-[4-fluoro-2-(trifluoromethyl)phenyl] piperidine-1-carboxamide] had an IC50 in experiment [1] of less than 10 nM. Moreover, in experiment [2], the JAK2/JAK1 is on record as more than 10.
Take `N#CCC1(n2cc(-c3ncnc4[nH]ccc34)cn2)CN(C2CCN(C(=O)c3ccnc(C(F)(F)F)n3)CC2)C1` [compound 3, [3-[4-(7H-pyrrolo[2,3-d]pyrimidin-4-yl)-1H-pyrazol-1-yl]-1-(1-{[2-(trifluoromethyl)pyrimi-din-4-yl]carbonyl}piperidin-4-yl)azetidin-3-yl]acetonitrile]: the half-inhibitory concentration (IC50) in experiment [1] is less than 10 nM. Besides, in experiment [2], the JAK2/JAK1 is listed as more than 10.
In the same order, the values of `C[C@@H](O)c1nc2cnc3ccsc3c2n1[C@H]1CC[C@H](CC#N)OC1` [compound 5, ((2R,5S)-5-{2-[(1R)-1-hydroxyethyl]-1H-imidazo[4,5-d]thieno[3,2-b]pyridin-1-yl}tetrahydro-2H-pyran-2-yl)acetonitrile] are less than 100 nM and more than 10.
`N#CCC(C1CCN(c2nc3cccnc3o2)C1)n1cc(-c2ncnc3[nH]ccc23)cn1` (stereo not drawn) [compound 7, 3-(1-[1,3]oxazolo[5,4-b]pyridin-2-ylpyrrolidin-3-yl)-3-[4-(7H-pyrrolo[2,3-d]pyrimidin-4-yl)-1H-pyrazol-1-yl]propanenitrile]: the half-inhibitory concentration (IC50) in experiment [1] is less than 10 nM. In experiment [2], the JAK2/JAK1 is on record as more than 10.
For `N#CCC(CN1CCN(C(=O)c2ccc(C#N)cc2F)CC1)n1cc(-c2ncnc3[nH]ccc23)cn1` (stereo not drawn) [compound 8, 4-[(4-{3-cyano-2-[4-(7H-pyrrolo[2,3-d]pyrimidin-4-yl)-1H-pyrazol-1-yl]propyl}piperazin-1-yl)carbanoyl]-3-fluorobenzonitrile], in that order: less than 10 nM and more than 10.
`N#CCC(CN1CCN(C(=O)c2ccc(C#N)cc2F)CC1)n1ccc(-c2ncnc3[nH]ccc23)c1` (stereo not drawn) [compound 9, 4-[(4-{3-cyano-2-[3-(7H-pyrrolo[2,3-d]pyrimidin-4-yl)-1H-pyrrol-1-yl]propyl}piperazin-1-yl)carbonyl]-3-fluorobenzonitrile] showed an IC50 in experiment [1] of less than 10 nM. Further, the JAK2/JAK1 in experiment [2] is more than 10.
For `N#CC[C@]1(n2cc(-c3ncnc4[nH]ccc34)cn2)C[C@H](N2CCN(C(=O)c3ccnc(C(F)(F)F)n3)CC2)C1` [compound 10, [trans-1-[4-(7H-pyrrolo[2,3-d]pyrimidin-4-yl)-1H-pyrazol-1-yl]-3-(4-{[2-(trifluoromethyl)pyrimi-din-4-yl]carbonyl}piperazin-1-yl)cyclobutyl]acetonitrile], the half-maximal inhibitory concentration (IC50) in experiment [1] is less than 10 nM. Besides, in experiment [2], the JAK2/JAK1 is listed as more than 10.
The compound `N#CC[C@]1(n2cc(-c3ncnc4[nH]ccc34)cn2)C[C@H](N2CCC(Oc3cc(CN4CC(O)C4)cc(C(F)(F)F)n3)CC2)C1` [compound 11, {trans-3-(4-{[4-[(3-hydroxyazetidin-1-yl)methyl]-6-(trifluoromethyl)pyridin-2-yl]oxy}piperidin-1-yl)-1-[4-(7H-pyrrolo[2,3-d]pyrimidin-4-yl)-1H-pyrazol-1-yl]cyclobutyl}acetonitrile] gave an IC50 in experiment [1] of less than 10 nM. The JAK2/JAK1 in experiment [2] was more than 10.
For `N#CC[C@]1(n2cc(-c3ncnc4[nH]ccc34)cn2)C[C@H](N2CCC(Oc3cc(CN4CCC[C@H]4CO)cc(C(F)(F)F)n3)CC2)C1` [compound 12, {trans-3-(4-{[4-{[(2S)-2-(hydroxymethyl)pyrroli-din-1-yl]methyl}-6-(trifluoromethyl)pyridin-2-yl]oxy}piperidin-1-yl)-1-[4-(7H-pyrrolo[2,3-d]pyrimidin-4-yl)-1H-pyrazol-1-yl]cyclobutyl}acetonitrile], in that order: less than 10 nM and more than 10.
As for `N#CC[C@]1(n2cc(-c3ncnc4[nH]ccc34)cn2)C[C@H](N2CCC(Oc3cc(CN4CCC[C@@H]4CO)cc(C(F)(F)F)n3)CC2)C1` [compound 13, {trans-3-(4-{[4-{[(2R)-2-(hydroxymethyl)pyrroli-din-1-yl]methyl}-6-(trifluoromethyl)pyridin-2-yl]oxy}piperidin-1-yl)-1-[4-(7H-pyrrolo[2,3-d]pyrimidin-4-yl)-1H-pyrazol-1-yl]cyclobutyl}acetonitrile], in experiment [1], the IC50 was less than 10 nM. The JAK2/JAK1 in experiment [2] is given as more than 10.
In experiment [1], `C[C@H](NC(=O)c1cc(F)c(N2CC(CC#N)(n3cc(-c4ncnc5[nH]ccc45)cn3)C2)cc1F)C(F)(F)F` [compound 16, 4-{3-(cyanomethyl)-3-[4-(7H-pyrrolo[2,3-d]pyrimidin-4-yl)-1H-pyrazol-1-yl]azetidin-1-yl}-2,5-difluoro-N-[(1S)-2,2,2-trifluoro-1-methylethyl)benzamide] came in with an IC50 of less than 10 nM. Moreover, in experiment [2], the JAK2/JAK1 is given as more than 10.
`N#CCC1(n2cc(-c3ncnc4[nH]ccc34)cn2)CN([C@H]2CC[C@@H](Oc3cc(CCO)nc(C(F)(F)F)n3)CC2)C1` [compound 18, {1-(cis-4-{[6-(2-hydroxyethyl)-2-(trifluoromethyl)pyrimi-din-4-yl]oxy}cyclohexyl)-3-[4-(7H-pyrrolo[2,3-d]pyrimidin-4-yl)-1H-pyrazol-1-yl]azetidin-3-yl}acetonitrile] gave a 50% inhibitory concentration (IC50) in experiment [1] of less than 10 nM. For the same compound, the JAK2/JAK1 in experiment [2] is more than 10.
For `CCNCc1cc(O[C@H]2CC[C@@H](N3CC(CC#N)(n4cc(-c5ncnc6[nH]ccc56)cn4)C3)CC2)nc(C(F)(F)F)c1` [compound 19, {1-(cis-4-{[4-[(ethylamino)methyl]-6-(trifluoromethyl)pyridin-2-yl]oxy}cyclohexyl)-3-[4-(7H-pyrrolo[2,3-d]pyrimidin-4-yl)-1H-pyrazol-1-yl]azetidin-3-yl}acetonitrile], in that order: less than 10 nM and more than 10.
In experiment [1], `CC(C)(O)c1cc(O[C@H]2CC[C@@H](N3CC(CC#N)(n4cc(-c5ncnc6[nH]ccc56)cn4)C3)CC2)nc(C(F)(F)F)c1` [compound 20, {1-(cis-4-{[4-(1-hydroxy-1-methylethyl)-6-(trifluoromethyl)pyridin-2-yl]oxy}cyclohexyl)-3-[4-(7H-pyrrolo[2,3-d]pyrimidin-4-yl)-1H-pyrazol-1-yl]azetidin-3-yl}acetonitrile] displayed a half-maximal inhibitory concentration (IC50) of less than 10 nM. Besides, the JAK2/JAK1 in experiment [2] is more than 10.
Consider `N#CCC1(n2cc(-c3ncnc4[nH]ccc34)cn2)CN([C@H]2CC[C@@H](Oc3cc(CN4CC[C@@H](O)C4)cc(C(F)(F)F)n3)CC2)C1` [compound 21, {1-(cis-4-{[4-{[(3R)-3-hydroxypyrrolidin-1-yl]methyl}-6-(trifluoromethyl)pyridin-2-yl]oxy}cyclohexyl)-3-[4-(7H-pyrrolo[2,3-d]pyrimidin-4-yl)-1H-pyrazol-1-yl]azetidin-3-yl}acetonitrile], for which the 50% inhibitory concentration (IC50) in experiment [1] was less than 10 nM. Besides, in experiment [2], the JAK2/JAK1 is more than 10.
`N#CCC1(n2cc(-c3ncnc4[nH]ccc34)cn2)CN([C@H]2CC[C@@H](Oc3cc(CN4CC[C@H](O)C4)cc(C(F)(F)F)n3)CC2)C1` [compound 22, {1-(cis-4-{[4-{[(3S)-3-hydroxypyrrolidin-1-yl]methyl}-6-(trifluoromethyl)pyridin-2-yl]oxy}cyclohexyl)-3-[4-(7H-pyrrolo[2,3-d]pyrimidin-4-yl)-1H-pyrazol-1-yl]azetidin-3-yl}acetonitrile] gave an IC50 in experiment [1] of less than 10 nM. Also, in experiment [2], the JAK2/JAK1 is on record as more than 10.
`C[C@@H](CO)NCc1cc(OC2CCN([C@H]3C[C@](CC#N)(n4cc(-c5ncnc6[nH]ccc56)cn4)C3)CC2)nc(C(F)(F)F)c1` [compound 23, {trans-3-(4-{[4-({[(1S)-2-hydroxy-1-methylethyl]amino}meth-yl)-6-(trifluoromethyl)pyridin-2-yl]oxy}piperidin-1-yl)-1-[4-(7H-pyrrolo[2,3-d]pyrimidin-4-yl)-1H-pyrazol-1-yl]cyclobutyl}acetonitrile]: the IC50 in experiment [1] was less than 10 nM. Also, the JAK2/JAK1 in experiment [2] is recorded as more than 10.
In experiment [1], `C[C@@H](O)CNCc1cc(OC2CCN([C@H]3C[C@](CC#N)(n4cc(-c5ncnc6[nH]ccc56)cn4)C3)CC2)nc(C(F)(F)F)c1` [compound 24, {trans-3-(4-{[4-({[(2R)-2-hydroxypropyl]amino}methyl)-6-(trifluoromethyl)pyridin-2-yl]oxy}piperidin-1-yl)-1-[4-(7H-pyrrolo[2,3-d]pyrimidin-4-yl)-1H-pyrazol-1-yl]cyclobutyl}acetonitrile] registered a half-inhibitory concentration (IC50) of less than 10 nM. Further, in experiment [2], the JAK2/JAK1 was more than 10.
For `C[C@H](O)CNCc1cc(OC2CCN([C@H]3C[C@](CC#N)(n4cc(-c5ncnc6[nH]ccc56)cn4)C3)CC2)nc(C(F)(F)F)c1` [compound 25, {trans-3-(4-{[4-({[(2S)-2-hydroxypropyl]amino}methyl)-6-(trifluoromethyl)pyridin-2-yl]oxy}piperidin-1-yl)-1-[4-(7H-pyrrolo[2,3-d]pyrimidin-4-yl)-1H-pyrazol-1-yl]cyclobutyl}acetonitrile], in experiment [1], the concentration for half-maximal inhibition (IC50) is less than 10 nM. The JAK2/JAK1 in experiment [2] is reported as more than 10.
In experiment [1], `N#CC[C@]1(n2cc(-c3ncnc4[nH]ccc34)cn2)C[C@H](N2CCC(Oc3cc(CCO)cc(C(F)(F)F)n3)CC2)C1` [compound 26, {trans-3-(4-{[4-(2-hydroxyethyl)-6-(trifluoromethyl)pyridin-2-yl]oxy}piperidin-1-yl)-1-[4-(7H-pyrrolo[2,3-d]pyrimidin-4-yl)-1H-pyrazol-1-yl]cyclobutyl}acetonitrile] showed an IC50 of less than 10 nM. Moreover, the JAK2/JAK1 in experiment [2] is reported as more than 10.
